Source: patent publication US9980973B2, “Bicyclic heterocycle compounds and their uses in therapy” (ASTEX THERAPEUTICS LIMITED, priority 2012, dated 2018)
Counter-ions that a name gives are not always drawn. Like-named read-outs stand apart in the source and are kept apart here.

Experiments:
[1] = target: T1, BIR3 domain of human XIAP (Homo sapiens, UniProt P98170); assay: XIAP in vitro competitive displacement binding assay (fluorescence polarization); details: 1 h, PI at 0.04 μM; read-out: Xiap IC50 or PI μM (PI)
T1 construct: BIR3 domain of human XIAP (residues 252-350) fused to a His-tag; His-tag (cleaved yes); made in house; host or cells: Escherichia coli
T1 sequence (P98170 252-350): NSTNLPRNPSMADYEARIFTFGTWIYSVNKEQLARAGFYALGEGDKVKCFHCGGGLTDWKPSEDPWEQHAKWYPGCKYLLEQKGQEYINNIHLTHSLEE

[2] = test system: EVSA-T (human breast carcinoma); assay: Anti-proliferative activity, Alamar Blue assay, EVSA-T; assay type: cell-based
[3] = Homo sapiens, EVSA-T, 72 h, EVSA-T cells, 72 hours, Alamar Blue, read-out: EVSA-T prolif
[4] = Homo sapiens, EVSA-T, read-out: EC50 in EVSA-T cell line assays
[5] = EVSA-T cells, 72 hours, Alamar Blue, dihydrochloride, read-out: EVSA-T prolif

C[C@@H]1CN(CC(=O)N2CC(C)(C)c3ncc(Cc4ccc(F)cc4)cc32)[C@@H](CN2CCN(c3ncccn3)C[C@H]2C)CN1 [Example 53, 1-{6-[(4-Fluorophenyl)methyl]-3,3-dimethyl-1H,2H,3H-pyrrolo[3,2-b]pyridin-1-yl}-2-[(2R,5R)-5-methyl-2-{[(2R)-2-methyl-4-(pyrimidin-2-yl)piperazin-1-yl]methyl}piperazin-1-yl]ethan-1-one, dihydrochloride]
inhibition at 0.04 µM [1]: 59%
EC50 [2, 3]: 0.61 nM
EC50 [2, 4]: < 1000 nM

COC[C@@H]1COCCN1C[C@H]1CN[C@H](C)CN1CC(=O)N1CC(C)(C)c2cnc(Cc3ccc(F)cc3)cc21 [Example 96, 1-{6-[(4-Fluorophenyl)methyl]-3,3-dimethyl-1H,2H,3H-pyrrolo[3,2-c]pyridin-1-yl}-2-[(2R,5R)-2-{[(3R)-3-(methoxymethyl)morpholin-4-yl]methyl}-5-methylpiperazin-1-yl]ethan-1-one dihydrochloride]
inhibition at 0.04 µM [1]: 49%
EC50 [2, 3]: 1.7 nM
EC50 [2, 4]: < 1000 nM

C[C@@H]1CN(CC(=O)N2CC(C)(C)c3ccc(Cc4ccc(F)cc4)cc32)[C@@H](CN2[C@H](C)COC[C@H]2C)CN1 [Example 49, 2-[(2R,5R)-2-{[(3R,5R)-3,5-Dimethylmorpholin-4-yl]methyl}-5-methylpiperazin-1-yl]-1-{6-[(4-fluorophenyl)methyl]-3,3-dimethyl-2,3-dihydro-1H-indol-1-yl]ethan-1-one, dihydrochloride]
inhibition at 0.04 µM [1]: 44%
EC50 [2, 3]: 1.1 nM
EC50 [2, 4]: < 1000 nM

C[C@@H]1CN(CC(=O)N2CC(C)(C)c3ncc(Cc4ccc(F)cc4F)cc32)[C@@H](CN2CCOC[C@]2(C)CO)CN1 [Example 57, 1-{6-[(2,4-Difluorophenyl)methyl]-3,3-dimethyl-1H,2H,3H-pyrrolo[3,2-b]pyridin-1-yl}-2-[(2R,5R)-2-{[(3S)-3-(hydroxymethyl)-3-methylmorpholin-4-yl]methyl}-5-methylpiperazin-1-yl]ethan-1-one, dihydrochloride]
inhibition at 0.04 µM [1]: 41%
EC50 [2, 3]: 2.6 nM
EC50 [2, 4]: < 1000 nM

C[C@@H]1CN(CC(=O)N2CC(C)(C)c3ncc(C(O)c4c(F)cccc4F)cc32)[C@@H](CN2[C@H](C)COC[C@H]2C)CN1 (single isomer, unassigned) [Example 117, 1-{(R or S)-6-[(2,6-Difluorophenyl)(hydroxy)meth-yl]-3,3-dimethyl-1H,2H,3H-pyrrolo[3,2-]pyridin-1-yl}-2-[(2R,5R)-2-{[(3R,5R)-3,5-dimethylmorpholin-4-yl]methyl}-5-methylpiperazin-1-yl]ethan-1-one dihydrochloride]
inhibition at 0.04 µM [1]: 41%

C[C@@H]1CN(CC(=O)N2CC(C)(C)c3ncc(C(O)c4ccccc4)cc32)[C@@H](CN2[C@H](C)COC[C@H]2C)CN1 (single isomer, unassigned) [Example 113, 2-[(2R,5R)-2-{[(3R,5R)-3,5-Dimethylmorpholin-4-yl]methyl}-5-methylpiperazin-1-yl]-1-{(R or S)-6-[hydroxy(phenyl)methyl]-3,3-dimethyl-1H,2H,3H-pyrrolo[3,2-]pyridin-1-yl}ethan-1-one dihydrochloride]
EC50 [2, 3]: 9.4 nM
EC50 [2, 4]: < 1000 nM

CC1CC(=O)CCN1C[C@H]1CN[C@H](C)CN1CC(=O)N1CC(C)(C)c2ncc(Cc3ccc(F)cc3)cc21 (stereo partly drawn) [Example 8, 1-{[(2R,5R)-1-(2-{6-[(4-Fluorophenyl)methyl]-3,3-dimethyl-1H,2H,3H-pyrrolo[3,2-b]pyridin-1-yl}-2-oxoethyl)-5-methylpiperazin-2-yl]methyl}-2-methylpiperidin-4-one dihydrochloride]
EC50 [2, 3]: 3 nM
EC50 [2, 4]: < 1000 nM

C[C@@H]1CN(CC(=O)N2CC(C)(C)c3ncc(Cc4ccc(F)cc4)cc32)[C@@H](CN2CCOC(C#N)C2)CN1 (stereo partly drawn) [Example 31, 4-{[(2R,5R)-1-(2-{6-[(4-Fluorophenyl)methyl]-3,3-dimethyl-1H,2H,3H-pyrrolo[3,2-b]pyridin-1-yl}-2-oxoethyl)-5-methylpiperazin-2-yl]methyl}morpholine-2-carbonitrile]
EC50 [2, 3]: 1.1 nM
EC50 [2, 4]: < 1000 nM

C[C@@H]1CN(CC(=O)N2CC(C)(C)c3ncc(C(O)c4ccc(F)cc4F)cc32)[C@@H](CN2[C@H](C)COC[C@H]2C)CN1 (single isomer, unassigned) [Example 103, (R or S)-1-[6-[(2,4-Difluorophenyl)(hydroxy)meth-yl]-3,3-dimethyl-1H,2H,3H-pyrrolo[3,2-b]pyridin-1-yl}-2-[(2R,5R)-2-{[(3R,5R)-3,5-dimethylmorpholin-4-yl]methyl}-5-methylpiperazin-1-yl]ethan-1-one dihydrochloride]
EC50 [2, 5]: 2.8 nM
EC50 [2, 4]: < 1000 nM

C[C@@H]1CN(CC(=O)N2CC(C)(C)c3ncc(Cc4ccc(F)cc4F)cc32)[C@@H](CN2C[C@H](CO)OC[C@H]2C)CN1 [Example 120, 1-{6-[(2,4-Difluorophenyl)methyl]-3,3-dimethyl-1H,2H,3H-pyrrolo[3,2-b]pyridin-1-yl}-2-[(2R,5R)-2-{[(2R,5R)-2-(hydroxymethyl)-5-methylmorpholin-4-yl]methyl}-5-methylpiperazin-1-yl]ethan-1-one, dihydrochloride]
EC50 [2, 3]: 0.3 nM
EC50 [2, 4]: < 1000 nM

C[C@@H]1CN(CC(=O)N2CC(C)(C)c3ncc(Cc4ccc(F)cc4)cc32)[C@@H](CN2CCOCC2(C)CO)CN1 (stereo partly drawn) [Example 47, 1-{6-[(4-Fluorophenyl)methyl]-3,3-dimethyl-1H,2H,3H-pyrrolo[3,2-b]pyridin-1-yl}-2-[(2R,5R)-2-{[3-(hydroxymethyl)-3-methylmorpholin-4-yl]methyl}-5-methylpiperazin-1-yl]ethan-1-one, dihydrochloride]
EC50 [2, 3]: 0.9 nM
EC50 [2, 4]: < 1000 nM

C[C@@H]1CN(CC(=O)N2CC(C)(C)c3ncc(Cc4ccc(F)cc4)cc32)[C@@H](CN2CCC[C@@H](F)C2)CN1 [Example 14, 1-{6-[(4-Fluorophenyl)methyl]-3,3-dimethyl-1H,2H,3H-pyrrolo[3,2-b]pyridin-1-yl}-2-[(2R,5R)-2-{[(3R)-3-fluoropiperidin-1-yl]methyl}-5-methylpiperazin-1-yl]ethan-1-one dihydrochloride]
EC50 [2, 3]: 4.6 nM
EC50 [2, 4]: < 1000 nM

CO[C@@H]1CN(C[C@H]2CN[C@H](C)CN2CC(=O)N2CC(C)(C)c3ncc(Cc4ccc(F)cc4)cc32)C[C@@H]1F (mixture of isomers) [Example 41]
EC50 [2, 3]: 6 nM
EC50 [2, 4]: < 1000 nM

CCCC(O)c1cc2c(cn1)C(C)(C)CN2C(=O)CN1C[C@@H](C)NC[C@@H]1CN1[C@H](C)COC[C@H]1C (stereo partly drawn) [Example 90, 2-[(2R,5R)-2-{[(3R,5R)-3,5-Dimethylmorpholin-4-yl]methyl}-5-methylpiperazin-1-yl]-1-[6-(1-hydroxybutyl)-3,3-dimethyl-1H,2H,3H-pyrrolo[3,2-c]pyridin-1-yl]ethan-1-one dihydrochloride]
EC50 [2, 3]: 29 nM
EC50 [2, 4]: < 1000 nM

C[C@@H]1CN(CC(=O)N2CC(C)(C)c3ncc(Cc4ccc(F)cc4)cc32)[C@@H](CN2CCOCC2(C)C)CN1 [Example 5, 2-[(2R,5R)-2-[(3,3-Dimethylmorpholin-4-yl)methyl]-5-methylpiperazin-1-yl]-1-{6-[(4-fluorophenyl)methyl]-3,3-dimethyl-1H,2H,3H-pyrrolo[3,2-b]pyridin-1-yl}ethan-1-one dihydrochloride]
EC50 [2, 3]: 0.3 nM
EC50 [2, 4]: < 1000 nM

C[C@@H]1CN(CC(=O)N2CC(C)(C)c3ncc(C(O)c4ccc(F)cc4F)cc32)[C@@H](CN2[C@H](C)COC[C@H]2C)CN1 (single isomer, unassigned) [Example 104, (R or S)-1-{6-[(2,4-Difluorophenyl)(hydroxy)meth-yl]-3,3-dimethyl-1H,2H,3H-pyrrolo[3,2-b]pyridin-1-yl}-2-[(2R,5R)-2-{[(3R,5R)-3,5-dimethylmorpholin-4-yl]methyl}-5-methylpiperazin-1-yl]ethan-1-one dihydrochloride]
EC50 [2, 5]: 1.3 nM

C[C@@H]1CN(CC(=O)N2CC(C)(C)c3ncc(Cc4ccc(F)cc4)cc32)[C@@H](CN2Cc3cccnc3C2)CN1 [Example 21, 1-{6-[(4-Fluorophenyl)methyl]-3,3-dimethyl-1H,2H,3H-pyrrolo[3,2-b]pyridin-1-yl}-2-[(2R,5R)-5-methyl-2-{5H,6H,7H-pyrrolo[3,4-b]pyridin-6-ylmethyl}piperazin-1-yl]ethan-1-one dihydrochloride]
EC50 [2, 3]: 3.7 nM
EC50 [2, 4]: < 1000 nM

C[C@@H]1CN(CC(=O)N2CC(C)(C)c3ncc(Cc4ccc(F)cc4)cc32)[C@@H](CN2CCOCC23CC3)CN1 [Example 10, 1-{6-[(4-Fluorophenyl)methyl]-3,3-dimethyl-1H,2H,3H-pyrrolo[3,2-b]pyridin-1-yl}-2-[(2R,5R)-5-methyl-2-{7-oxa-4-azaspiro[2.5]octan-4-ylmethyl}piperazin-1-yl]ethan-1-one dihydrochloride]
EC50 [2, 3]: 0.42 nM
EC50 [2, 4]: < 1000 nM

C[C@@H]1CN(CC(=O)N2CC(C)(C)c3ncc(Cc4ccc(F)cc4)cc32)[C@@H](CN2C3CCC2COC3)CN1 [Example 17, 1-{6-[(4-Fluorophenyl)methyl]-3,3-dimethyl-1H,2H,3H-pyrrolo[3,2-b]pyridin-1-yl}-2-[(2R,5R)-5-methyl-2-{3-oxa-8-azabicyclo[3.2.1]octan-8-ylmethyl}piperazin-1-yl]ethan-1-one dihydrochloride]
EC50 [2, 3]: 3.8 nM
EC50 [2, 4]: < 1000 nM

CC1CS(=O)(=O)CCN1C[C@H]1CN[C@H](C)CN1CC(=O)N1CC(C)(C)c2ncc(Cc3ccc(F)cc3)cc21 (stereo partly drawn) [Example 9, 4-{[(2R,5R)-1-(2-{6-[(4-Fluorophenyl)methyl]-3,3-dimethyl-1H,2H,3H-pyrrolo[3,2-b]pyridin-1-yl}-2-oxoethyl)-5-methylpiperazin-2-yl]methyl}-3-methyl-1λ^6,4-thiomorpholine-1,1-dione dihydrochloride]
EC50 [2, 3]: 2.1 nM
EC50 [2, 4]: < 1000 nM
